Results: US8129527B2, “Analogs of dehydrophenylahistins and their therapeutic use” (Nereus Pharmacuticals, Inc., priority 2006, dated 2012)
Converted amounts (≈) assume the structure as drawn. Like-named read-outs stand apart in the source and are kept apart here. Values belong to the compound of their own block, whether it stands above or below them.

Assays:
[1] = test system: Trichophyton mentagrophytes; assay: Antifungal susceptibility testing, broth dilution (MIC/MFC); type: cell-based; settings: in words
Procedure: Specifically, disclosed compounds were evaluated alongside commercially available microtubulin inhibitors as well as recognized antifungal agents. […].
(§1) Microorganisms against which these compounds were tested included: Candida albicans, Candida glabrata, Aspergillus fumigatus, Trichophyton rubrum, Trichophyton mentagrophytes, Epidermophyton floccosum. With the exception of Candida glabrata (one isolate), two isolates of each species were tested.
Drug concentrations were 0.03-16 μg/ml for the investigational compounds, 0.015-8 μg/ml for itraconazole and griseofulvin.
The minimum lethal concentration (MLC) was determined by plating […] from the MIC concentration and each concentration above the MIC. […] When a MIC was obtained, a minimum fungicidal concentration (MFC) was determined to assess the fungistatic/fungicidal nature of the compound. […] The compound is scored as fungistatic if the cells are able to resume growth and fungicidal if no regrowth is possible because the compound had killed the organisms.

[2] = test system: P388 murine leukemia cells; assay: Cytotoxic effect in P388 cells; type: cell-based; settings: Mus musculus, P388, read-out: IC50 (nM) P-388; Table 2
Excerpt: The cytotoxic effects of phenylahistin, dehydrophenylahistin and various derivatives of dehydrophenylahistin were examined in P388 murine leukemia cells, HT-29 human colon cells, and PC-3 prostatic adenocarcinoma cells.

HT-29 human colon cells = assay: Tumor cytotoxicity assay, resazurin fluorescence, 48 h (Example 6); type: cell-based; settings: Homo sapiens
Aspergillus fumigatus = assay: Antifungal susceptibility testing, broth dilution (MIC/MFC); type: cell-based; settings: Aspergillus fumigatus, read-out: MIC
Procedure: (§2) Specifically, disclosed compounds were evaluated alongside commercially available microtubulin inhibitors as well as recognized antifungal agents.
as §1
(§3) The minimum lethal concentration (MLC) was determined by plating […] from the MIC concentration and each concentration above the MIC. […] When a MIC was obtained, a minimum fungicidal concentration (MFC) was determined to assess the fungistatic/fungicidal nature of the compound.

Candida glabrata = assay: as above; type: cell-based; settings: C. glabrata
Procedure: as §2, §1, §3

Trichophyton rubrum = assay: as above; type: cell-based; settings: in words
Procedure: as §2, §1, §3

Candida albicans = assay: as above; type: cell-based
Procedure: as §2, §1, §3

[3] = test system: MES-SA/Dx5 multidrug resistant; assay: Cell growth inhibition assay, resazurin (Example 11); type: cell-based, human
Procedure: (§4) Human uterine sarcoma (MES-SA; CRL-1976), its multidrug resistant derivative (MES-SA/Dx5; CRL-1977), human acute promyelocytic leukemia cells (HL-60; CCL-240) and its multidrug resistant derivative (HL-60/MX2; CRL-2257) were purchased from ATCC and maintained in appropriate culture media. The cells were cultured in an incubator at 37° C. in 5% CO2 and 95% humidified air.
(§5) For cell growth inhibition assays, MES-SA and MES-SA/Dx5 cells were both seeded at 3×10^3 cells/well in 90 μl complete media into 96 well (Corning; 3904) black-walled, clear-bottom tissue culture plates and the plates were incubated overnight to allow cells to establish and enter log phase growth. HL-60 and HL-60/MX2 cells were both seeded at 5×10^4 cells/well in 90 μl complete media into 96 well plates on the day of compound addition. 20 mM stock solutions of the compounds were prepared in 100% DMSO and stored at −80° C. […] Ten μl volumes of the 10× serial dilutions were added to the test wells in triplicate and the plates returned to the incubator for 48 hours. The final concentration of DMSO was 0.25% in all samples.
(§6) Following 48 hours of drug exposure, 10 μl of 0.2 mg/ml resazurin (obtained from Sigma-Aldrich Chemical Co.) in Mg^2+, Ca^2+ free phosphate buffered saline was added to each well and the plates were returned to the incubator for 3-6 hours. […] Resazurin dye in medium without cells was used to determine the background, which was subtracted from the data for all experimental wells.
(§7) The multidrug resistant MES-SA/Dx5 tumor cell line was derived from the human uterine sarcoma MES-SA tumor cell line and expresses elevated P-Glycoprotein (P-gp), an ATP dependent efflux pump. The data in Table 19 summarize the growth inhibitory effects of NPI-2421, NPI-2463, NPI-2503, NPI-2504 and NPI-2506 against MES-SA and its multidrug resistant derivative MES-SA/Dx5. Paclitaxel, a known substrate of the P-gp pump was included as a control.

[4] = test system: HL-60 human acute promyelocytic leukemia cells; assay: as above; type: cell-based; settings: mean values of two independent experiments
Procedure: as §4, §5, §6
(§8) HL-60/MX2 is a multidrug resistant tumor cell line derived from the human promyelocytic leukemia cell line, HL-60 and expresses reduced topoisomerase II activity. The data presented in Table 20 summarize the growth inhibitory effects of NPI-2421, NPI-2463, NPI-2503, NPI-2504 and NPI-2506 against HL-60 and its multidrug resistant derivative HL-60/MX2. Mitoxantrone, the topoisomerase II targeting agent was included as a control.

[5] = test system: MES-SA human uterine sarcoma; assay: as above; type: cell-based; settings: mean ± standard deviation of three independent experiments
Procedure: as §4, §5, §6, §7

[6] = test system: HT-29 human colorectal carcinoma cells; assay: Cell growth inhibition assay, resazurin (Table 3.2); type: cell-based; settings: Table 3.2, HT-29 cells, read-out: EC50 (M) Mean
Procedure: The cytotoxic effects of various derivatives of dehydrophenylahistin against HT-29 human colorectal carcinoma cells were determined.
HT-29 cells (ATCC; HTB-38) were maintained in ATCC recommended culture media and cultured in an incubator at 37° C. in 5% CO2 and 95% humidified air.
For cell growth inhibition assays, HT-29 cells were seeded at 5×10^3 cells/well in 90 μl complete media into a Corning 3904 black-walled, clear-bottom tissue culture plates and the plates were incubated overnight to allow cells to establish and enter log phase growth. 20 mM stock solutions of compounds were prepared in 100% DMSO and stored at −80° C. 10× concentrated serial dilutions of the compounds were prepared in culture medium for final concentrations ranging from 20 μM to […]. Ten μl volumes of the 10× serial dilutions were added to the test wells in triplicate and the plates returned to the incubator for 48 hours. The final concentration of DMSO was 0.25% in all samples.
as §6, with “3-4” for “3-6”

[7] = test system: HL-60/MX2 multidrug resistant; assay: Cell growth inhibition assay, resazurin (Example 11); type: cell-based, human
Procedure: as §4, §5, §6, §8

[8] = test system: HT-29 human colorectal carcinoma cells; assay: Cytotoxic effect against HT-29 cells (Table 30); type: cell-based
Procedure: The following additional dehydrophenylahistin derivatives were synthesized according to the methods described herein and their cytotoxic effect against HT-29 human colorectal carcinoma cells were determined.

[9] = test system: MES-SA/Dx5 (Taxol Resistant) human uterine sarcoma; assay: Drug resistant cell line pair, cytotoxicity (Example 10B); type: cell-based; settings: vs MES-SA
Excerpt: 1) Human Uterine Sarcoma Tumor Cell Line Pair: MES-SA (Taxol Sensitive) and MES-SA/Dx5 (Taxol Resistant).

[10] = test system: PC-3 prostatic adenocarcinoma cells; assay: Tumor cytotoxicity assay, resazurin fluorescence, 48 h (Example 6); type: cell-based, human; settings: Homo sapiens, read-out: EC50 (nM) PC-3
Procedure: 10× concentrated serial dilutions of the two compounds were prepared in appropriate culture medium for final concentrations ranging from 2.0×10^−5 M to 2.0×10^−10 M. Ten μl volumes of the 10× serial dilutions were added to the test wells in triplicate and the plates returned to the incubator for 48 hours.
as §6, with “exposure” for “exposure,”, “PBS” for “phosphate buffered saline”, “3-4” for “3-6”, “dye” for “dye in medium”, “wells. The data were analyzed using Prism software (GraphPad Software).” for “wells.”
PC-3, a human prostate adenocarcinoma, was maintained in F12K complete medium (F12K medium supplemented with 10% FBS; 2 mM Glutamine; 1% HEPES; and Pen/Strep at 100 IU/ml and 100 µg/ml, respectively).

[11] = Nakaseomyces glabratus, read-out: MIC
[12] = Candida albicans, C. albicans 90028, read-out: MIC
[13] = HT-29 cells, read-out: EC50 (M) Mean

MIC (Aspergillus fumigatus; A. fumigatus isolate #1): > 16 µg/mL | MIC (Aspergillus fumigatus; A. fumigatus isolate #2): > 16 µg/mL | MIC (Candida glabrata; [11]): > 70 µg/mL | MIC (Candida albicans; [12]): > 70 µg/mL
SMILES: C=CC(C)(C)c1[nH]cnc1/C=C1\NC(=O)[C@H](Cc2ccccc2)NC1=O [(−)-Phenylahistin, reference compound]
antifungal potency versus the sensitive T. mentagrophytes isolate [1]: weaker but more comparable to the others | IC50 [2]: 833 ± 153 nM | EC50 (HT-29 human colon cells; HT-29, Table 2, read-out: EC50 (nM) HT-29): 1600 nM | antifungal potency versus T. rubrum (Trichophyton rubrum): significantly less potent than the other compounds

EC50 [4]: 32 nM | EC50 [5]: 22 ± 3 nM | EC50 [6]: 2.4e-08 M | EC50 ([7]; Homo sapiens, HL60/MX2, HL-60/MX2, mean values of two independent experiments): 31 nM
SMILES: CC(C)(C)c1ocnc1/C=c1\[nH]c(=O)/c(=C/c2c(F)ccc(F)c2F)[nH]c1=O [Compound 2506, tBu-oxadelta-PLH-2,3,6-trifluoro]
EC50 ([3]; Homo sapiens, MES-SA/Dx5, mean ± standard deviation of three independent experiments): 27 ± 6 nM | cytotoxic activity against both MES-SA and MES-SA/Dx5 ([3]; in words): retained equivalent cytotoxic activity | Fold change ([3]; ratio of EC50 values (MES-SA/Dx5:MES-SA)): 1.2 | cytotoxic activity against both HL-60 and HL-60/MX2 ([7]; in words): retained cytotoxic activity | Fold change ([7]; ratio of EC50 values (HL-60/MX2:HL-60)): 1.0

SMILES: CC(C)(C)c1[nH]cnc1/C=c1\[nH]c(=O)/c(=C/c2cccc(OP(=O)(O)O)c2)[nH]c1=O [Compound 2521]
EC50 ([8]; HT-29, read-out: EC50 (M) Mean): 2.8e-07 M

SMILES: COC(=O)c1cccc(/C=c2\[nH]c(=O)/c(=C/c3nc[nH]c3C(C)(C)C)[nH]c2=O)c1 [Compound 2527]
EC50 ([8]; HT-29, read-out: EC50 (M) Mean): 1.9e-07 M

SMILES: CC(C)(C)c1[nH]cnc1/C=c1\[nH]c(=O)/c(=C/c2cccc(C(=O)O)c2)[nH]c1=O [Compound 2528]
EC50 [8, 13]: > 2e-05 M

SMILES: CC(C)(C)c1[nH]cnc1/C=c1\[nH]c(=O)/c(=C/c2cccc(C(N)=O)c2)[nH]c1=O [Compound 2529]
EC50 ([8]; HT-29, read-out: EC50 (M) Mean): 5e-06 M

SMILES: CC(C)(C)c1ocnc1/C=c1\[nH]c(=O)/c(=C/c2cccc(C(N)=O)c2)[nH]c1=O [Compound 2533]
EC50 [8, 13]: 1.8e-06 M

SMILES: CC(C)(C)c1ocnc1/C=c1\[nH]c(=O)/c(=C/c2cccc(C(=O)c3ccc(CN)cc3)c2)[nH]c1=O [Compound 2534]
EC50 ([8]; HT-29, read-out: EC50 (M) Mean): 5.3e-07 M

SMILES: CC(C)(C)c1ocnc1/C=c1\[nH]c(=O)/c(=C/c2cccc(C(=O)c3ccc(CNC(=O)CCCCCNC(=O)CCCCCNC(=O)CCCC[C@@H]4SC[C@H]5NC(=O)N[C@@H]45)cc3)c2)[nH]c1=O [Compound 2545]
EC50 [8, 13]: 1.1e-06 M

MIC (Candida glabrata): 1 µg/mL (≈ 1.08 µM) | MIC (Candida albicans; C. albicans 10231): 0.5 µg/mL (≈ 0.541 µM) | MIC (Candida albicans; C. albicans 90028): 0.5 µg/mL (≈ 0.541 µM)
SMILES: C[C@@H]1[C@H](O)[C@@H](C)/C=C/C=C/C=C/C=C/C=C/C=C/C=C/[C@H](O[C@@H]2O[C@H](C)[C@@H](O)[C@H](N)[C@@H]2O)C[C@@H]2O[C@](O)(C[C@@H](O)C[C@@H](O)[C@H](O)CC[C@@H](O)C[C@@H](O)CC(=O)O[C@H]1C)C[C@H](O)[C@H]2C(=O)O [amphotericin B, Amphotericin B]
MFC (Candida glabrata): 1 µg/mL (≈ 1.08 µM) | MFC (Candida albicans; C. albicans 10231): 0.5 µg/mL (≈ 0.541 µM) | MFC (Candida albicans; C. albicans 90028): 0.5 µg/mL (≈ 0.541 µM)

SMILES: CCCCNC(=O)n1c(NC(=O)OC)nc2ccccc21 [benomyl, Benomyl]
MFC (Candida glabrata; Nakaseomyces glabratus, read-out: MFC): > 512 µg/mL | MIC (Candida glabrata; [11]): 64 µg/mL (≈ 220 µM) | MFC (Candida albicans; Candida albicans, C. albicans 90028, read-out: MFC): > 512 µg/mL | MIC (Candida albicans; [12]): 64 µg/mL (≈ 220 µM)

SMILES: COc1cccc2c1C(=O)c1c(O)c3c(c(O)c1C2=O)C[C@@](O)(C(=O)CO)C[C@@H]3O[C@H]1C[C@H](N)[C@H](O)[C@H](C)O1 [doxorubicin, Doxorubicin, reference compound]
reduced susceptibility of the MES-SA/DX5 cell line [9]: 34 fold

SMILES: COc1cc([C@@H]2c3cc4c(cc3[C@@H](O[C@@H]3O[C@@H]5CO[C@@H](C)O[C@H]5[C@H](O)[C@H]3O)[C@H]3COC(=O)[C@H]23)OCO4)cc(OC)c1O [etoposide, Etoposide, reference compound]
reduced susceptibility of the MES-SA/DX5 cell line [9]: 60 fold

SMILES: CC(C)(C)c1[nH]cnc1/C=c1\[nH]c(=O)/c(=C/c2ccccc2)[nH]c1=O [tBu-ΔPLH]
EC50 (HT-29 human colon cells; HT-29, read-out: EC50 (nM) HT29, Table 1): 13 nM | EC50 [10]: 1 nM
